Results on 6 compounds are retold here after patent EP0299528A1, “Doxorubicin hydrochloride nonaqueous solution” (Bristol-Myers Squibb Company, priority 1987, dated 1989).

How the values of series [1] were obtained:
The pH is measured on solutions diluted to 1 mg/ml with water or 70% water/30% acetonitrile (v/v). […] An amount of citric acid is used which will provide a solution pH in the range of about 3-5, preferably 3-4.5.
We have tested a number of antioxidants including α-tocopherol, tert-butylhydroquinone (TBHQ), sodium formaldehyde bisulfite, butylated hydroxy anisole (BHA), butylated hydroxy toluene (BHT), sodium bisulfite and propyl gallate. […] Generally an amount of α-tocopherol, tert-butylhydroquinone or sodium formaldehyde bisulfite is employed in the range of about 0.1-2 mg/ml. The preferred concentration of antioxidant is about 0.5-2 mg/ml with about 2 mg/ml being most preferred.
Glass vials may conveniently be used as the container.

Series [2] in a line: Solubility of doxorubicin HCl in nonaqueous solvents. In kind it is physicochemical. To be noted: organic solvent or mixture.
The conditions of series [3]: cited from earlier work; for reconstituted solution remains stable: in 0.9% NaCl solution, Ketchum, et al. 1981.
For series [4] the following is noted: cited from earlier work.

Molecules are shown by their SMILES. Where a name gives a salt, the structure may show the parent alone. Read-outs that look alike come from different tables or passages of the source.

For the compound `CCCCCCCC/C=C\CCCCCCCC(=O)OCCOCC(OCCO)C1OCC(OCCO)C1OCCO` (stereo not drawn) [Tween-80], the “effect of additive on stability of the solutions” value in series [1] is on record as “did not improve stability”.
In the case of `O=C(O)CC(O)(CC(=O)O)C(=O)O` [citric acid], the “stability of the solutions with the acid used for pH control” value in series [1] (acid used to reach a pH range of about 3-5) is reported as “optimum stability”.
As for `COc1cccc2c1C(=O)c1c(O)c3c(c(O)c1C2=O)C[C@@](O)(C(=O)CO)C[C@@H]3O[C@H]1C[C@H](N)[C@H](O)[C@H](C)O1` [doxorubicin HCl, doxorubicin hydrochloride], the solubility is no less than 5000 µg/mL in series [2] (glycerol formal, pyrrolidinones, glycerol formal, 2-pyrrolidinone and 1-methyl-2-pyrrolidinone, read-out: concentration of solutions produced); roughly 20000 µg/mL in series [2] (glycols with 5-10% water, propylene glycol, 1,2-dihydroxybutane, 1,3-dihydroxypropane with addition of 5-10% (v/v) water, read-out: solubility); roughly 10000 µg/mL in series [2] (nonaqueous solvents, same three solvents after short-term (0.5-1 hour) warming (60-80°C) with vigorous stirring, read-out: solubility); less than 5000 µg/mL in series [2] (nonaqueous solvents, with heating, polyethylene glycols, ethanol, benzyl alcohol, dimethylisosorbide, ethyl lactate, Solketol, Cremophors, Pluronics, read-out: solubility); less than 5000 µg/mL in series [2] (propylene glycol, 1,2-dihydroxybutane, 1,3-dihydroxypropane, room temperature, in propylene glycol, 1,2-dihydroxybutane and 1,3-dihydroxypropane, read-out: solubility). The “chemical stability of solutions” value in series [1] (glycerol formal, 2-pyrrolidinone and 1-methyl-2-pyrrolidinone) is given as “chemically unstable”. Further, the potency loss entry in series [1] (short-term (0.5-1 hour) warming (60-80°C) in propylene glycol, 1,2-dihydroxybutane or 1,3-dihydroxypropane) was “no potency loss”. The “physical stability of the solution on storage” value in series [1] (stored at 4°C to -20°C, seeding with crystalline doxorubicin HCl does not affect crystallization) was “remains in solution”. The “reconstituted solution remains stable” value in series [3] (5°C) and in series [3] (room temperature) was “seven” each time. In addition, the “reconstituted solutions stable (≦10% potency loss)” value in series [3] (refrigerated at 4°C, Hoffman, et al. 1979) is listed as “up to six”. Further, in series [4] (Tris or phosphate buffers using HCl to adjust pH, Janssen, et al. 1985), the “pH of maximum stability” value is 4. Besides, in series [4] (reconstitution solvent 5% Dextrose Injection, USP, Poochikian, et al. 1981), the “pH of optimum stability” value is reported as roughly 4.5.
In the case of `O=S(=O)(O)CO` [sodium formaldehyde bisulfite], in series [1], the “stability of the solutions with the antioxidant” value (shortened to “stability … with the antioxidant”) is on record as “resulted in the desired stability”.
In the case of `CC(C)(C)c1cc(O)ccc1O` [tert-butylhydroquinone], in series [1] (elevated temperatures as well as room temperature (25°C) or below), the “stability … with the antioxidant” value was “resulted in the desired stability”.
`Cc1c(C)c2c(c(C)c1O)CCC(C)(CCCC(C)CCCC(C)CCCC(C)C)O2` (stereo not drawn) [α-tocopherol]: in series [1], the “stability … with the antioxidant” value is given as “resulted in the desired stability”.
